{
  "source": "paper PMC9500072",
  "about": "“Topical application of an irreversible small molecule inhibitor of lysyl oxidases ameliorates skin scarring and fibrosis” (Nature Communications, 2022)",
  "format_in_all_cases": "biochemical",
  "key": {"Human Recombinant SSAO": {"biological_target": "T1, Human Recombinant SSAO (Homo sapiens, UniProt Q16853)", "T1 sequence (Q16853 1-763)": "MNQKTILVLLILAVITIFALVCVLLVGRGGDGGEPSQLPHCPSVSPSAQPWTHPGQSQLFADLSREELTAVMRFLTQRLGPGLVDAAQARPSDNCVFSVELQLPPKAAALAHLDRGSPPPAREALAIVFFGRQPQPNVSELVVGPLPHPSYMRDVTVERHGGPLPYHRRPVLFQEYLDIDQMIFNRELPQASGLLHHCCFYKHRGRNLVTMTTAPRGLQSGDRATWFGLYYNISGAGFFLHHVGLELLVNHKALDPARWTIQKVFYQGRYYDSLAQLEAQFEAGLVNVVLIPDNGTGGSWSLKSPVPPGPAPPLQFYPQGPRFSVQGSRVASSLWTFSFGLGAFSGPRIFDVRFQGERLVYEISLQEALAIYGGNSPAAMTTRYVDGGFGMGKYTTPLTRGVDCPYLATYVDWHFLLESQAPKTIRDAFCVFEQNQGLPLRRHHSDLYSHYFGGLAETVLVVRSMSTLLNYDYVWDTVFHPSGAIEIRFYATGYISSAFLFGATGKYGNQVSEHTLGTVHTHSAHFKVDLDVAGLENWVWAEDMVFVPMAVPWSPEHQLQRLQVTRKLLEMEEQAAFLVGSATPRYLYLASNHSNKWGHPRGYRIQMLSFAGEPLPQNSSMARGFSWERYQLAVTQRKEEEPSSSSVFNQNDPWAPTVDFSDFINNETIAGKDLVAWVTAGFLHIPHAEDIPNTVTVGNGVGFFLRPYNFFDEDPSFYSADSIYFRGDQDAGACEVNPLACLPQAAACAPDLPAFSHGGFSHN", "assay": "Amine oxidase inhibition profile, SSAO", "excerpt": "Supplem entary Materi als:\nSupplementary Table S1: Amine oxidase inhibition profile of PXS -4787, PXS-6302 and\nSupplementary Table S2: Perm eability profile of PXS -6302."}, "Recombinant human LOXL1": {"biological_target": "T2, Recombinant human LOXL1 (Homo sapiens, UniProt Q08397)", "T2 construct": "made in house", "T2 sequence (Q08397 96-574)": "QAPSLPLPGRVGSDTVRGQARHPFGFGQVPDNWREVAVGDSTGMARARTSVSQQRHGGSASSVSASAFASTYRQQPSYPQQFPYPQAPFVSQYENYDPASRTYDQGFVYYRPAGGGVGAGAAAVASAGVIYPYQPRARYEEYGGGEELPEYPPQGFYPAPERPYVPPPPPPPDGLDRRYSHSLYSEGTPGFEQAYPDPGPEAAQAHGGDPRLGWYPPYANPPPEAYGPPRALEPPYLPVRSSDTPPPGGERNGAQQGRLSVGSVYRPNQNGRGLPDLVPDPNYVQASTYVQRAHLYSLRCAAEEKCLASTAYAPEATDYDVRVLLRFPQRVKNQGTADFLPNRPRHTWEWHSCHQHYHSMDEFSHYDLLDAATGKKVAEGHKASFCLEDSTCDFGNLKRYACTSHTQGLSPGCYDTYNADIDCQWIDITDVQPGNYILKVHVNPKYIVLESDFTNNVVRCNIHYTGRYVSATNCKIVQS", "assay": "Amplex Red oxidation assay, LOXL1 inhibition", "experimental": "(§1) The measurement of the enzymatic activity of all lysyl oxidase family members was based on the detection of hydrogen peroxide with an Amplex-Red oxidation assay, as previously described; miniaturized in 384 well formats, with the appropriate combination of substrate and assay buffer for each individual enzyme. After a 30 min pre-incubation of the enzyme at 37 °C with the test compound (or with different incubation times for the time-dependency assay), one volume of reaction mixture containing 120 μM Amplex Red (AR) (Life Technologies), 1.5 U/mL horseradish peroxidase (HRP) (Sigma-Aldrich) and the specific substrate was added to each sample. The relative fluorescence units (RFU) were then measured every 2.5 min for 30 min at 37 °C, excitation 565 nm and emission 590, on a BMG Clariostar Microplate Reader. All the substrates were used at concentrations corresponding to their Km towards the corresponding enzyme, or with a range of different concentrations for the substrate competition experiments.\n(§2) Lysyl oxidases assay buffer contained 1.2 M urea, 50 mM sodium borate buffer, pH 8.2 and 100 µM β-aminoproprionitrile (BAPN, Sigma-Aldrich) was used for low control.\n(§3) Recombinant human LOXL1 was expressed and purified from cDNA (GeneArt) and 10 mM putrescine was used as substrate. Recombinant human and mouse LOXL2 (R&D Systems) were challenged with 5 mM putrescine (Sigma-Aldrich) as the substrate. Rat and dog recombinant LOXL2 were amplified and purified in house from HEK-293 clones kindly provided by Dr. Fernando Rodríguez Pascual, Madrid University, and used in the same conditions as for the human form. 2 mM putrescine was used as the substrate for recombinant human LOXL3 (R&D Systems) and LOXL4 (Dr. Fernando Rodríguez Pascual, university of Madrid, Spain) assays."}, "Human recombinant LOXL2": {"biological_target": "T3, Human recombinant LOXL2 (Homo sapiens, UniProt Q9Y4K0)", "T3 construct": "purchased R&D Systems", "T3 sequence (Q9Y4K0 26-774)": "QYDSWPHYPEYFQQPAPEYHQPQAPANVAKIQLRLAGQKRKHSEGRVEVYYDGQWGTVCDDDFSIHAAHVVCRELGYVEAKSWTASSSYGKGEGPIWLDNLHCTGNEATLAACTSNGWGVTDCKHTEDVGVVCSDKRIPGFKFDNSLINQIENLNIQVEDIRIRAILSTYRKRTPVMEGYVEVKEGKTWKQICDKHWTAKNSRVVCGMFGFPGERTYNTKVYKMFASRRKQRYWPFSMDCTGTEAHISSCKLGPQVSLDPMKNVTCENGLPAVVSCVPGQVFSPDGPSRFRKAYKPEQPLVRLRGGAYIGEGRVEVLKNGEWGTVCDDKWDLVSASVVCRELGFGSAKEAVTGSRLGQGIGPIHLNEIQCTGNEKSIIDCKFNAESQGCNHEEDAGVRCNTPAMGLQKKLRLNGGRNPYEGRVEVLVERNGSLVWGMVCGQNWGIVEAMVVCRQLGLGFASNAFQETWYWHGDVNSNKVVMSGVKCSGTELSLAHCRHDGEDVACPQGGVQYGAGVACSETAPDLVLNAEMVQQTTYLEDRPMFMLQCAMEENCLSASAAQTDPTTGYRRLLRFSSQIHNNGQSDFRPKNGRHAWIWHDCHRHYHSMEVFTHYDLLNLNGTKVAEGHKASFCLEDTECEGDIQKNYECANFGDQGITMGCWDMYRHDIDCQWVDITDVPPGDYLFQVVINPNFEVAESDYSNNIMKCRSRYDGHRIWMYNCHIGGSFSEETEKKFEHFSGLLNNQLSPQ", "assay": "Amplex Red oxidation assay, LOXL2 inhibition", "experimental": "For compound oxidation assays, the amount of hydrogen peroxide generated at a single concentration (30 µM) of compound relative to DMSO was measured.\nas §1, §2, §3"}, "[1]": {"conditions": "read-out: Recombinant SSAO IC50"}, "[2]": {"conditions": "30 min pre-incubation, read-out: rh LOXL1 IC50"}, "[3]": {"conditions": "30 min pre-incubation, read-out: LOXL2 IC50"}, "[4]": {"conditions": "log conc -4.5229, read-out: Fig 2A inhibition (mean)"}, "[5]": {"conditions": "log conc -5, read-out: Fig 2A inhibition (mean)"}, "[6]": {"conditions": "log conc -5.4771, read-out: Fig 2A inhibition (mean)"}, "[7]": {"conditions": "log conc -5.9542, read-out: Fig 2A inhibition (mean)"}, "[8]": {"conditions": "log conc -6.4313, read-out: Fig 2A inhibition (mean)"}, "[9]": {"conditions": "log conc -6.9083, read-out: Fig 2A inhibition (mean)"}, "[10]": {"conditions": "log conc -7.3851, read-out: Fig 2A inhibition (mean)"}, "[11]": {"conditions": "log conc -7.8633, read-out: Fig 2A inhibition (mean)"}, "[12]": {"conditions": "log conc -8.3372, read-out: Fig 2A inhibition (mean)"}, "[13]": {"conditions": "log conc -8.8239, read-out: Fig 2A inhibition (mean)"}, "[14]": {"conditions": "log conc -9.301, read-out: Fig 2A inhibition (mean)"}, "[15]": {"conditions": "read-out: Human Recombinant LOXL1 pIC50±SD (converted)"}},
  "note": "“And” between values parts separate entries of the source, which are not always exact repeats. Identical values can stand only once. Like-named read-outs stand apart in the source and are kept apart here.",
  "data": [
    {"smiles": "N#CCCN", "note": "[BAPN, β-aminoproprionitrile, reference compound]", "values": [
      {"measurement": "Recombinant SSAO pIC50", "setting": "Human Recombinant SSAO", "result": "< 4"},
      {"measurement": "IC50", "setting": "Human Recombinant SSAO; [1]", "result": "> 100", "unit": "µM"},
      {"measurement": "Human Recombinant LOXL1 pIC50±SD", "setting": "Recombinant human LOXL1", "result": "5.6 ± 0.1"},
      {"measurement": "IC50", "setting": "Recombinant human LOXL1; [2]", "result": 2.46, "unit": "µM"},
      {"measurement": "Human Recombinant LOXL2 pIC50±SD", "setting": "Human recombinant LOXL2", "result": "6.4 ± 0.1"},
      {"measurement": "IC50", "setting": "Human recombinant LOXL2; [3]", "result": 0.39, "unit": "µM"}
    ]},
    {"smiles": "NC/C=C(\\F)CS(=O)(=O)c1ccccc1", "note": "[PXS-4787]", "values": [
      {"measurement": "IC50", "setting": "Human Recombinant SSAO; [1]", "result": "> 100", "unit": "µM"},
      {"measurement": "IC50", "setting": "Recombinant human LOXL1; [2]", "result": "3 µM and 3.23 µM"},
      {"measurement": "inhibition at 30 µM", "setting": "Recombinant human LOXL1; [4]", "result": 97.5, "unit": "%"},
      {"measurement": "inhibition at 10 µM", "setting": "Recombinant human LOXL1; [5]", "result": 84.7, "unit": "%"},
      {"measurement": "inhibition at 3.333 µM", "setting": "Recombinant human LOXL1; [6]", "result": 56.4, "unit": "%"},
      {"measurement": "inhibition at 1.111 µM", "setting": "Recombinant human LOXL1; [7]", "result": 26.9, "unit": "%"},
      {"measurement": "inhibition at 0.3704 µM", "setting": "Recombinant human LOXL1; [8]", "result": 13.6, "unit": "%"},
      {"measurement": "inhibition at 0.1235 µM", "setting": "Recombinant human LOXL1; [9]", "result": 6.04, "unit": "%"},
      {"measurement": "inhibition at 0.0412 µM", "setting": "Recombinant human LOXL1; [10]", "result": 2.88, "unit": "%"},
      {"measurement": "inhibition at 0.0137 µM", "setting": "Recombinant human LOXL1; [11]", "result": 3.87, "unit": "%"},
      {"measurement": "inhibition at 0.0046 µM", "setting": "Recombinant human LOXL1; [12]", "result": 0.808, "unit": "%"},
      {"measurement": "inhibition at […]", "setting": "Recombinant human LOXL1; [13]", "result": -1.89, "unit": "%"},
      {"measurement": "inhibition at 0.0005 µM", "setting": "Recombinant human LOXL1; [14]", "result": 1.05, "unit": "%"},
      {"measurement": "IC50", "setting": "Recombinant human LOXL1; [15]", "result": 3.16, "unit": "µM"},
      {"measurement": "IC50", "setting": "Human recombinant LOXL2; [3]", "result": 0.6, "unit": "µM"},
      {"measurement": "inhibition at 30 µM", "setting": "Human recombinant LOXL2; [4]", "result": 98.4, "unit": "%"},
      {"measurement": "inhibition at 10 µM", "setting": "Human recombinant LOXL2; [5]", "result": 95.6, "unit": "%"},
      {"measurement": "inhibition at 3.333 µM", "setting": "Human recombinant LOXL2; [6]", "result": 87.6, "unit": "%"},
      {"measurement": "inhibition at 1.111 µM", "setting": "Human recombinant LOXL2; [7]", "result": 67.7, "unit": "%"},
      {"measurement": "inhibition at 0.3704 µM", "setting": "Human recombinant LOXL2; [8]", "result": 40.3, "unit": "%"},
      {"measurement": "inhibition at 0.1235 µM", "setting": "Human recombinant LOXL2; [9]", "result": 18.8, "unit": "%"},
      {"measurement": "inhibition at 0.0412 µM", "setting": "Human recombinant LOXL2; [10]", "result": 9.34, "unit": "%"},
      {"measurement": "inhibition at 0.0137 µM", "setting": "Human recombinant LOXL2; [11]", "result": 2.56, "unit": "%"},
      {"measurement": "inhibition at 0.0046 µM", "setting": "Human recombinant LOXL2; [12]", "result": 0.119, "unit": "%"},
      {"measurement": "inhibition at […]", "setting": "Human recombinant LOXL2; [13]", "result": -0.297, "unit": "%"},
      {"measurement": "inhibition at 0.0005 µM", "setting": "Human recombinant LOXL2; [14]", "result": -1.19, "unit": "%"},
      {"measurement": "IC50", "setting": "Human recombinant LOXL2; read-out: Human Recombinant LOXL2 pIC50±SD (converted)", "result": 0.631, "unit": "µM"}
    ]},
    {"smiles": "NC/C=C(\\F)C(F)(F)S(=O)(=O)c1ccccc1", "note": "[PXS-6302]", "values": [
      {"measurement": "IC50", "setting": "Human Recombinant SSAO", "result": "> 30", "unit": "µM"},
      {"measurement": "IC50", "setting": "Recombinant human LOXL1; [2]", "result": 3.42, "unit": "µM"},
      {"measurement": "IC50", "setting": "Recombinant human LOXL1; [15]", "result": 3.16, "unit": "µM"},
      {"measurement": "Human Recombinant LOXL2 pIC50±SD", "setting": "Human recombinant LOXL2", "result": "6.4 ± 0.2"},
      {"measurement": "IC50", "setting": "Human recombinant LOXL2; [3]", "result": 0.43, "unit": "µM"}
    ]}
  ]
}
